Measured values taken from patent EP4775577A1, “RAS INHIBITOR” (Tyligand Bioscience (Shanghai) Limited, priority 2023, dated 2025).
Where two headings read alike, the source gives them in different places.

What was measured:
[1] = tested on: KRAS G12V mutant NCI-H727 cells; assay: Proliferation inhibition of NCI-H727 cells, 3D CellTiter-Glo assay (Method B); format: cell-based, human; conditions: Method B, 3D culture with 0.65% methylcellulose, 5 days, CTG, read-out: NCI-H727 IC50/nM
Method in brief: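 Cells grown in 3D medium (RPMI-1640, 10% FBS, 0.65% methylcellulose) overnight, then treated 5 days at 37 °C, 5% CO2 with 9 threefold dilutions from 10 µM top working concentration, duplicate wells. CellTiter-Glo luminescence read; IC50 (nM) fitted by dose-response-inhibition equation.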

[2] = Pharmacokinetics in mice; conditions: mouse, in vivo, po, 20 mg/kg
Description: Male CD-1 mice, aged 6-8 weeks, were purchased from Zhejiang Vital River Laboratory Animal Co., Ltd.
For the PO administration group, compounds were formulated in 0.5% Tween 80 and 99.5% (0.5%MC (400cp)) vehicle or 0.5%MC (400cp) vehicle to a final concentration of 1 mg/mL or 2 mg/mL for each compound. The drug formulation was administered to CD-1 mice via gavage at a dose of 10 mL/kg. Blood samples were collected from the submandibular vein or other suitable means at 15 min, 30 min, 1 h, 2 h, 4 h, 6 h, 8 h, and 24 h after administration. The blood samples were centrifuged at low temperature for 5 minutes, and the plasma was collected and stored at -80°C for analysis.
10 µL of plasma sample was taken, 200 µL of methanol containing an internal standard as a precipitant was added to precipitate plasma proteins, the compounds to be tested in the plasma was extracted, centrifuged at low temperature, and 10 µL of the supernatant was injected. The drug concentration in blood plasma was analyzed by LC-MS/MS. The pharmacokinetic parameters were calculated using Winnonlin based on the blood drug concentration data at different time points.

[3] = tested on: KRAS G12D mutant AGS cells; assay: Proliferation inhibition of AGS cells, CellTiter-Glo assay; format: cell-based, human; conditions: 3 days, CTG, read-out: AGS IC50/nM
Method in brief: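 AGS cells at 1500 cells/well in F12K + 10% FBS were exposed for 3 days at 37°C to nine 3-fold dilutions from 10 µM top concentration, in duplicate. Viability read by CellTiter-Glo luminescence; IC50 (nM) from dose-response-inhibition fitting.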

[4] = tested on: KRAS G12S mutant A549 cells; assay: Proliferation inhibition of A549 cells, 3D CellTiter-Glo assay; format: cell-based; conditions: Homo sapiens, A549, 120 h, read-out: A549 IC50/nM
Description: A549 cells (Nanjing Kebai Biotechnology Co., Ltd., catalog number CBP60084, adherent, culture medium (F12K Nutrient Mixture+10%FBS (GIBCO, Cat#10091-148) at 37°C, 5%CO2, and 95% humidity.
3D Cell Viability Assay: Cells in the logarithmic growth phase were harvested and counted using a platelet counter. Cell viability was assessed using the trypan blue exclusion method to ensure a viability of over 90%. The 3D cell culture medium was prepared by adding 1% MC (methylcellulose, Sigma, Cat#M0512) F-12K medium and 10% FBS. The cell concentration was adjusted to approximately 7407 cells/mL using the 3D medium, and the methylcellulose (MC) content was set to 0.65%. Then, 135 µL of cell suspension was added to each 96-well clear, flat-bottomed, black-walled plate (Greiner, Cat#655096). The cells in the 96-well plates were cultured overnight at 37°C with 5% CO2.
Drug preparation for IC50 assay: A 10-fold drug solution was prepared using culture medium. […] of the drug solution was added to each well of a 96-well plate seeded with cells to achieve a working concentration of up to 10 µM, with a 3× dilution, and 9 concentrations. 2 replicate wells for each drug concentration were set. The cells in the drug-treated 96-well plates were cultured at 37°C and 5% CO^2 for additional5 days, then CTG assay (CellTiter-Glo® Luminescent Cell Viability Assay (Promega, Cat#G7573)) were performed.
The cell plate was equilibrated to room temperature for 30 minutes and the CTG reagent was thawed. 75 µL of CTG solution was added to each well for detection, and the plate was shaken on an orbital shaker for 5 minutes to lyse the cells. The cell plate was placed at room temperature for 25 minutes to stabilize the cryo-luminescence signal and the cryo-luminescence value was read (EnVision® multi-plate reader, PerkinElmer#2105).
Data was analyzed using GraphPad Prism software. The dose-response-inhibition equation was used to fit the data to obtain the dose-response curve, and the IC50 value (nM) was calculated accordingly. [formula]

Row | IC50 ([1]; Homo sapiens, NCI-H727, 120 h) [nM] | AUC(0-t) at 8 h [2] [ng·h/mL] | IC50 ([3]; Homo sapiens, AGS, 72 h) [nM] | IC50 [4] [nM] | SMILES | IC50 [1] [nM] | IC50 [3] [nM]
1 | < 1.5 | 822 | < 1.5 | – | CCN1CC/C(=C\F)[C@](C)(COc2nc(N3Cc4c(O)c(C(=O)N(C)C)nn4CC[C@@H]3C)c3cc(Cl)c(-c4c(F)ccc5sc(N)c(C#N)c45)c(F)c3n2)C1 (single isomer, unassigned) [Example 233A] | – | –
2 | < 1.5 | – | < 1.5 | 33.8 | C[C@H]1CCn2nc(C(=O)N(C)C)cc2CN1c1nc(OC[C@]2(C)CN(C)CC/C2=C\F)nc2c(F)c(-c3cccc4sc(N)c(C#N)c34)c(C(F)(F)F)cc12 (atropisomer, axis not shown) [Example 123A] | – | –
3 | < 1.5 | – | < 1.5 | 40.3 | CN1CC/C(=C\F)[C@](C)(COc2nc(N3CCCn4nc(C(=O)N(C)C)c(C#N)c4C3)c3cc(C(F)(F)F)c(-c4c(F)ccc5sc(N)c(C#N)c45)c(F)c3n2)C1 [Example 150] | – | –
4 | 2.4 | – | 13.1 | 40.7 | [2H]C([2H])([2H])N1CC[C@H](C(F)F)[C@](C)(COc2nc(N3CCOC[C@@](C)(O)C3)c3cc(C(F)(F)F)c(-c4ccc(F)c5sc(N)c(C#N)c45)c(F)c3n2)C1 [Example 55] | – | –
5 | 2.2 | – | < 1.5 | 23.9 | CN1CC/C(=C\F)[C@](C)(COc2nc(N3CCCn4nc(C(=O)N(C)C)c(Cl)c4C3)c3cc(C(F)(F)F)c(-c4cccc5sc(N)c(C#N)c45)c(F)c3n2)C1 [Example 124] | – | –
6 | < 1.5 | – | < 1.5 | 48 | CCc1cc2c(N3Cc4cc(C(=O)N(C)C)nn4CC[C@@H]3C)nc(OC[C@]3(C)CN(C)CC/C3=C\F)nc2c(F)c1-c1c(F)ccc2sc(N)c(C#N)c12 (single isomer, unassigned) [Example 164A] | – | –
7 | 1.6 | – | 4.7 | 35.1 | CN1CC/C(=C\F)[C@](C)(COc2nc(N3CCOC[C@@](C)(O)C3)c3cc(C(F)(F)F)c(-c4cccc5sc(N)c(C#N)c45)c(F)c3n2)C1 (atropisomer, axis not shown) [Example 6A, (S)-2-amino-4-(8-fluoro-2-(((S,E)-4-(fluoromethylene)-1,3-dimethylpiperidine-3-yl)methoxy)-4-((S)-6-hydroxy-6-methyl-1,4-oxazol-4-yl)-6-(trifluoromethyl)quinazoline-7-yl)benzo[b]thiophene-3-carbonitrile] | – | –

Row | SMILES | IC50 ([1]; Homo sapiens, NCI-H727, 120 h) [nM] | AUC(0-t) at 8 h [2] [ng·h/mL] | IC50 ([3]; Homo sapiens, AGS, 72 h) [nM] | IC50 [4] [nM] | IC50 [1] [nM] | IC50 [3] [nM]
8 | CN1CC/C(=C\F)[C@](C)(COc2nc(N3CCCn4nc(C(=O)N(C)C)cc4C3)c3cc(C(F)(F)F)c(-c4c(F)ccc5sc(N)c(C#N)c45)c(F)c3n2)C1 (single isomer, unassigned) [Example 28A] | 1.8 | – | < 1.5 | 31.2 | – | –
9 | CN1CC/C(=C\F)[C@](C)(COc2nc(N3CCCn4nc(C(=O)N(C)C)cc4C3)c3cc(Cl)c(-c4c(F)ccc5sc(N)c(C#N)c45)c(F)c3n2)C1 (atropisomer, axis not shown; (Ra)) [Example 93A, (Ra)-5-(7-(2-amino-3-cyano-5-fluorobenzo[b]thiophene-4-yl)-6-chloro-8-fluoro-2-(((S,E)-4-(fluoromethylene)-1,3-dimethylpiperidine-3-yl)methoxy)quinazoline-4-yl)-N,N-dimethyl-5,6,7,8-tetrahydro-4H-pyrazolo[1,5-a][1,4]diazepine-2-formamide·formate] | – | – | – | 32.6 | 4.1 | < 1.5
10 | [2H]C([2H])([2H])N1CC[C@H](C(F)F)[C@](C)(COc2nc(N3Cc4cc(C(=O)N(C)C)nn4CC[C@@H]3C)c3cc(CC)c(-c4c(F)ccc5sc(N)c(C#N)c45)c(F)c3n2)C1 (single isomer, unassigned) [Example 174A] | 2.5 | – | < 1.5 | 51.9 | – | –
11 | [2H]C([2H])([2H])N1CC/C(=C\F)[C@](C)(COc2nc(N3Cc4cc(C(=O)N(C)C)nn4CC[C@@H]3C)c3cc(CC)c(-c4c(F)ccc5sc(N)c(C#N)c45)c(F)c3n2)C1 (single isomer, unassigned) [Example 173A] | < 1.5 | – | < 1.5 | 43.5 | – | –
